“And” between values parts separate entries of the source, which are not always exact repeats. Equal values may be shown once.
How the values were obtained:
MCT1 [1] = system: MCT1; set-up: method as in PMID 31017677; settings: L-[14C]lactate uptake, rat brain endothelial cells; read-out: IC50 towards MCT1; cited from earlier work
[2] = Metabolism and renal excretion of [18F]FACH in mice (radio-HPLC)
Protocol: Radio-metabolites were analyzed by analytical and semi-preparative HPLC on a JASCO LC-2000 system (JASCO Labor- und Datentechnik, Gross-Umstadt, Germany), consisting of a PU-2080 Plus pump, AS-2055 Plus auto injector (100 μL sample loop) or a manual injection valve with a 5 mL sample loop, and a UV-2070 Plus detector coupled with a gamma radioactivity HPLC detector (Gabi Star, Raytest Isotopenmessgeräte GmbH, Straubenhardt, Germany). Data analysis was performed with the Galaxie chromatography software (Agilent Technologies, Santa Clara, CA, USA). Monitoring of UV absorption was done at wavelengths of 254 and 400 nm (400 nm was detected as λmax for this class of compounds). For analytical and semi-preparative radio-HPLC analyses, Reprosil-Pur columns (C18-AQ 250 × 4.6 mm; 5 μm; and C18-AQ 150 × 4.6 mm; 10 μm; Dr. Maisch HPLC GmbH; Ammerbuch-Entringen, Germany) were used. Acetonitrile (ACN) mixed with a 20 mM aqueous solution of ammonium acetate (NH4OAc) was used as eluent.
[^18F]FACH (33.8 ± 3.3 MBq in 200 μL isotonic saline) was injected in awake CD-1 mice (n = 4) via a tail vein. At 30 min after radiotracer administration, the mice were anaesthetised with isoflurane, and retro-orbital blood was sampled, followed by cervical dislocation and collection of released urine.
In mouse studies, at 30 min after i.v. injection of the radiotracer [^18F]FACH, the plasma was isolated by centrifugation of a blood sample at 10,000 rpm for 2 min. […]
Protein precipitation of plasma and tissue homogenates was performed by addition of ice-cold ACN/H2O (9:1, v/v) at a ratio of 4:1 (v/v) of the solvent mixture to each tissue sample (n = 2). […] The combined supernatants (total volume between 1 to2 mL) were concentrated at 70 °C under argon flow to a final volume of approximately 100 μL and analyzed by analytical radio-HPLC. […] To determine the percentage of the radioactivity in the supernatants compared to the total radioactivity aliquots were taken at each step and, as well as the precipitates, quantified by gamma counting.

[3] = Metabolism and renal excretion of [18F]FACH in piglets (radio-HPLC, graphical analysis)
Protocol: Radio-metabolites were analyzed by analytical and semi-preparative HPLC on a JASCO LC-2000 system (JASCO Labor- und Datentechnik, Gross-Umstadt, Germany), consisting of a PU-2080 Plus pump, AS-2055 Plus auto injector (100 μL sample loop) or a manual injection valve with a 5 mL sample loop, and a UV-2070 Plus detector coupled with a gamma radioactivity HPLC detector (Gabi Star, Raytest Isotopenmessgeräte GmbH, Straubenhardt, Germany). Data analysis was performed with the Galaxie chromatography software (Agilent Technologies, Santa Clara, CA, USA). […] For analytical and semi-preparative radio-HPLC analyses, Reprosil-Pur columns (C18-AQ 250 × 4.6 mm; 5 μm; and C18-AQ 150 × 4.6 mm; 10 μm; Dr. Maisch HPLC GmbH; Ammerbuch-Entringen, Germany) were used. Acetonitrile (ACN) mixed with a 20 mM aqueous solution of ammonium acetate (NH4OAc) was used as eluent.
In corresponding piglet studies (n = 5), plasma was separated from the arterial blood samples drawn during the PET recordings at certain time points.
In piglet studies, similar procedures were implemented for preparing samples from plasma collected at 15, 30, 45 and 60 min p.i., with the exception of collecting the urine sample only at 60 min p.i. Additionally, in order to measure the radio-metabolites in the piglet kidney, the tissue was resected at 60 min p.i. and after washing in PBS, samples of the kidney cortex and medulla were isolated and homogenized in demineralized water (2 mL/g tissue) using a borosilicate glass mortar with ten strokes of a PTFE plunger at 1000 rpm (Potter S, Homogenizer, B. Braun Biotech, Sartorius AG, Göttingen, Germany). Protein precipitation was performed by addition of ice-cold ACN/H2O at a ratio of 4:1 (v/v) of organic solvent to each tissue sample. The samples were vortexed for 3 min, placed on ice for 3 min, and the suspensions were centrifuged at 12,000 rpm at 4 °C for 5 min. For the second extraction, the precipitates were washed with 200 μL of the solvent mixture and subjected to the same procedure. The combined supernatants (total volume between 68 mL) were concentrated at 70 °C under argon flow to a final volume of approximately 2 mL and analyzed by semi-preparative RP radio-HPLC. […] The analyses were performed in gradient mode using 10% ACN/20 mM NH4OAc (aq.) as eluent A and 90% ACN/20 mM NH4OAc (aq.) as eluent B under the following conditions:
To determine the percentage of the radioactivity in the supernatants compared to the total radioactivity aliquots were taken at each step and, as well as the precipitates, quantified by gamma counting.
By interpolation of the measured radio-metabolite fractions from the piglet PET studies, the continuous TACs for [^18F]FACH and its radio-metabolites were calculated. Subsequently, the magnitudes of the whole body rate constant for [^18F]FACH metabolism (k0) and the elimination rate constant for the radio-metabolites (k−1) under control and pre-treated conditions were calculated as described previously [32]. Graphical analysis of the integrals of the plasma time-concentration series of PET tracers and their radio-metabolite(s) follow a linear relationship [32, 47], where the ordinate intercept is equal to the whole body fractional rate constant for the metabolism of the parent, designated k0 (min^−1). The linear regression slope corresponds to the fractional rate constant for the elimination of the radio-metabolite from circulation, designated k−1 (min^−1), which indicates the renal clearance of the radio-metabolite.

plasma protein = test: Plasma protein binding ex vivo (ultrafiltration); format: in vitro ADME; settings: mouse plasma, 70 min after i.v. injection
Protocol: To measure plasma protein binding in vitro, a 1 mL portion of piglet plasma was incubated with 4.9 MBq [^18F]FACH (10 µL) on a shaker (400 rpm) for 20 min at 37 °C. The plasma protein binding was also measured ex vivo in 10 µL portions of mouse plasma from retro-orbital blood samples collected 70 min after intravenous (i.v.) injection of 3.7 MBq [^18F]FACH via a tail vein. The free and bound fractions of [^18F]FACH were separated by centrifugation at room temperature (2000 g for ten minutes, Centrifree® YM-30, Ultrafiltration Device; Merck KGaA, Darmstadt, Germany). Radioactivity was measured in aliquots of ultrafiltrate and in prefiltration plasma samples, using a Wizard 2470 γ-counter (PerkinElmer LAS, Rodgau, Germany), and the free fraction in the plasma (fp) calculated from the concentration ratio.

MCTs [4] = test: PET displacement study in mice; format: in vivo, mouse; settings: mice
Protocol: The biodistribution of [^18F]FACH in mice was assessed by small animal PET (Nanoscan, Mediso, Budapest, Hungary) with dynamic 60 min emission recordings, followed by T1 weighted GRE MR (TR = 15.0 ms, TE = 2.4 ms, FA = 25°) imaging for anatomical correlations and attenuation correction. The mice (n = 20) weighing 32.2 ± 2.9 g were anaesthetised with 2% isoflurane in 60% oxygen, and placed on a thermostatically heated animal bed. The animals then received i.v. injections of 0.9% saline (control), reference compound (10 mg/kg), or α-CCA-Na (25 mg/kg) ten min prior or 20 min after (displacement studies) [^18F]FACH administration (2.3–8.6 MBq, 0.5–11.2 nmol/kg). List mode PET data were binned as a series of attenuation-corrected sinogram frames (12 × 10 s, 6 × 30 s, 5 × 60 s and 10 × 300 s) and were reconstructed by Ordered Subset Expectation Maximization (OSEM3D) with four iterations, six subsets and a voxel size of 0.4 mm³ (Nucline v2.01, Mediso).
The analysis of reconstructed datasets was performed with PMOD software (v4.103, PMOD Technologies LLC, Zurich, Switzerland).

MCT1 [5] = molecular target: T1, MCT1 (Mus musculus, UniProt P53986); test: MCT1 specific cell uptake of [18F]FACH in 4T1 cells; format: cell-based; settings: control (vehicle), 30 min incubation, 37 °C, pH 7.4
T1 construct: endogenous in cells; host or cells: 4T1 cells (murine triple negative breast cancer), a gift from István Krizbai's group
T1 sequence (P53986 1-493): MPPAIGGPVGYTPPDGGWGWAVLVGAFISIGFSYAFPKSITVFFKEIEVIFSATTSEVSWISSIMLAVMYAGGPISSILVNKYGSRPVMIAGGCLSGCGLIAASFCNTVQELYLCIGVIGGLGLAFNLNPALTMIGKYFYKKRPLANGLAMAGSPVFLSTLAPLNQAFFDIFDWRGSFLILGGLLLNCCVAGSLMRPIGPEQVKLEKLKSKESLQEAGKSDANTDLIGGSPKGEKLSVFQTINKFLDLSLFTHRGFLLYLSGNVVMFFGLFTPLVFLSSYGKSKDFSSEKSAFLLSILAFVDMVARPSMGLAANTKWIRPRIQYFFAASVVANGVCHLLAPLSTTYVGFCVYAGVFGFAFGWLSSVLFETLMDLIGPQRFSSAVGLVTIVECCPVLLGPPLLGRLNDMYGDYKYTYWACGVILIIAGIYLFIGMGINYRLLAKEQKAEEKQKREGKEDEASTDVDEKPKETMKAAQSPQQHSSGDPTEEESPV
T1 sequence (P18572 140-389 partner limits assumed): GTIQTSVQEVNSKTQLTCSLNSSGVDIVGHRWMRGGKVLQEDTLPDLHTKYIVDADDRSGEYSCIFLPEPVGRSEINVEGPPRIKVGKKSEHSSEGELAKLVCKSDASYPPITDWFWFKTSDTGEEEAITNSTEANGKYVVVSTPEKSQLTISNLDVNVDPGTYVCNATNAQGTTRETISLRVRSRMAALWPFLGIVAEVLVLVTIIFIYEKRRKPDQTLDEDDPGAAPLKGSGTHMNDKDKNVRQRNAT
Protocol: Afterwards, the cell culture media was replaced with 500 µL RPMI 1640 supplemented with 20 mM HEPES adjusted to pH 7.4 without FCS and incubated for 16 h at 37 °C and 5% CO2. […] After a 30 min incubation, cells were collected on ice and washed three times with phosphate buffer saline and subsequently dispersed in 500 µL 0.1 N NaOH at room temperature for 10 min. The activity of 100 µL cell solution was measured in a gamma counter and normalized to initial dose. Protein content of 10 µL portions of cell solution was measured with a BCA Kit (Pierce, Thermo Fisher Scientific GmbH) relative to a BSA standard curve, and binding was normalized to units of %ID/ mg protein.

MCTs [6] = test: Compartmental kinetic modelling of PET data in mice; format: in vivo, mouse; settings: for K1 / VT / k2: 1-TCM; for K1 (representative 1-TCM curve fit) / k2 (representative 1-TCM curve fit): control study, Figure S12
Protocol: Table 4 includes the results of 1-tissue-compartment kinetic modelling (1-TCM) of [^18F]FACH in the kidney cortex and the liver of the control and pre-treated mouse groups (α-CCA-Na and reference compound). […] The BPND was estimated as the ratio of [VT(control)/VT(pre-treatment)] − 1.
Kinetic analysis of reconstructed datasets was performed with PMOD software. First, image derived arterial input functions (IDIFs) were obtained from the left ventricle in mice and from an artery close to the kidney in piglet studies. IDIFs were corrected for partial volume effects, plasma fraction from hematocrit values (individually determined for each piglet directly before PET imaging; for mice set to 0.51 according to CD-1 Mouse Hematology sheet from Charles River Laboratories, 2011) and radio-metabolites (measured for piglets, and set to zero for mice). Tri-exponential metabolite-corrected fitted input functions were used for one and two tissue compartment modelling (1-TCM/2-TCM) of time activity curves (TACs) in tissue volumes of interest (VOIs). For both species the specific blood volume was set to 0.15 mL g^−1 in the kidney cortex and 0.128 mL g^−1 in the liver, according to published values.

For CCCN(CCC[18F])c1ccc(/C=C(\C#N)C(=O)O)c(OC)c1 [[^18F]FACH, (E)-2-cyano-3-{4-[(3-[^18F]fluoropropyl)(propyl)amino]-2-methoxyphenyl}acrylic acid], which IC50 (MCT1 [1]) is on record?
The IC50 was 11 nM.

And the “radioactivity in bladder/urine (renal excretion)” value ([2]; mice, 60 min p.i., control)?
The value was 0.51 ± 0.39 %ID.

What about the “intact [18F]FACH in plasma” value ([2]; mouse plasma, 30 min p.i.) of the same compound?
Its value is “More than 99%”.

What about the “[18F]FACH (parent) in urine” value ([2]; mouse urine) of the same compound?
The value was under 5%.

What about the “apparent rate constant (k0) for [18F]FACH metabolism” value ([3]; piglets, control) of the same compound?
Its value is 0.87 ± 0.34 min⁻¹.

And the “parent radiotracer fraction in plasma” value ([3]; piglets, control, 60 min)?
Its value is 8.8 ± 4.8%.

And the “parent radiotracer fraction in plasma” value ([3]; piglets, control, five min)?
The value was 42 ± 13%.

And the “intact radiotracer in urine” value ([3]; piglets, urine 60 min p.i.)?
Its value is “no intact radiotracer was detectable”.

And the “parent fraction of [18F]FACH in kidney cortex” value ([3]; two control piglets, 60 min p.i.)?
Its value is 50.5% and 48.0%.

What about the “free plasma fraction (fp)” value (plasma protein) of the same compound?
Its value is 0.07.

What about the “kidney cortex SUV” value (MCTs [4]; before injection of α-CCA-Na) of the same compound?
Its value is 3.50 ± 0.42.

What about the “blood SUV” value (MCTs [4]; pre-injection of α-CCA-Na) of the same compound?
The value was 0.74 ± 0.23.

What about the cell-associated radioactivity (MCT1 [5]) of the same compound?
Its cell-associated radioactivity is 4.7 %ID/mg protein.

And the K1 (MCTs [6]; kidney cortex, control)?
The K1 was 0.13 ± 0.06 mL/g/min.

And the VT (MCTs [6]; kidney cortex, control)?
The VT was 8.60 ± 4.55 mL/g.

What about the k2 (MCTs [6]; kidney cortex, control) of the same compound?
Its k2 is 0.02 ± 0.01 min⁻¹.

What about the “K1 (2-TCM)” value (MCTs [6]; kidney cortex, 2-TCM, control) of the same compound?
The value was 0.28±0.24 ml/ccm/min.

What about the “VND (2-TCM)” value (MCTs [6]; kidney cortex, 2-TCM, control) of the same compound?
The value was 1.77±2.49 ml/ccm.

And the “k2 (2-TCM)” value (MCTs [6]; kidney cortex, 2-TCM, control)?
Its value is 1.54 ± 2.43 min⁻¹.

And the “k3 (2-TCM)” value (MCTs [6]; kidney cortex, 2-TCM, control)?
Its value is 0.77 ± 0.78 min⁻¹.

And the “k4 (2-TCM)” value (MCTs [6]; kidney cortex, 2-TCM, control)?
Its value is 0.02 ± 0.02 min⁻¹.

And the “K1 (representative 1-TCM curve fit)” value (MCTs [6]; kidney cortex)?
Its value is 0.16 mL/g/min.

And the “k2 (representative 1-TCM curve fit)” value (MCTs [6]; kidney cortex)?
The value was 0.04 min⁻¹.

And the K1 (MCTs [6]; liver, control)?
The K1 was 0.49 ± 0.24 mL/g/min.

And the VT (MCTs [6]; liver, control)?
The VT was 6.47 ± 2.49 mL/g.

And the k2 (MCTs [6]; liver, control)?
Its k2 is 0.08 ± 0.02 min⁻¹.

What about the BPND (MCTs [6]; liver, (VT(control)/VT(pre-treated)) − 1) of the same compound?
The BPND was 0.04.

And the “K1 (representative 1-TCM curve fit)” value (MCTs [6]; liver)?
Its value is 0.40 mL/g/min.

And the “k2 (representative 1-TCM curve fit)” value (MCTs [6]; liver)?
The value was 0.09 min⁻¹.

Source: article PMC7915902, “Preclinical Evaluation of [^18F]FACH in Healthy Mice and Piglets: An ^18F-Labeled Ligand for Imaging of Monocarboxylate Transporters with PET” (International Journal of Molecular Sciences, 2021)
